# Test results published in PubChem BioAssay (NCI).
#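 Grown in 96-well plates, cells were treated for 48 hours with each compound at five concentrations. Insufficient inhibition: endpoint recorded as highest concentration tested. At the GI50, growth is halved. TGI denotes the concentration required for complete inhibition of growth.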
# Experiments:
# Assay in all cases: NCI anticancer screen, dose series, 48 h
# SNB-75 CNS = tested on: SNB-75 CNS
# EKVX NSCLC = tested on: EKVX NSCLC
# SF-539 CNS = tested on: SF-539 CNS
# BT-549 breast = tested on: BT-549 breast
# HCC-2998 colon = tested on: HCC-2998 colon
# 786-0 renal = tested on: 786-0 renal
# SK-MEL-5 melanoma = tested on: SK-MEL-5 melanoma
# UACC-257 melanoma = tested on: UACC-257 melanoma
# CAKI-1 renal = tested on: CAKI-1 renal
# HS 578T breast = tested on: HS 578T breast
# SF-268 CNS = tested on: SF-268 CNS
# OVCAR-4 ovarian = tested on: OVCAR-4 ovarian
# SF-295 CNS = tested on: SF-295 CNS
# NCI-H460 lung = tested on: NCI-H460 lung
# KM12 colon = tested on: KM12 colon
# DU-145 prostate = tested on: DU-145 prostate
# OVCAR-3 ovarian = tested on: OVCAR-3 ovarian
# MDA-MB-435 = tested on: MDA-MB-435
# UO-31 renal = tested on: UO-31 renal
# HCT-15 colon = tested on: HCT-15 colon
# M14 melanoma = tested on: M14 melanoma
# SW-620 colon = tested on: SW-620 colon
# OVCAR-5 ovarian = tested on: OVCAR-5 ovarian
# ACHN renal = tested on: ACHN renal
smiles,measurement,setting,value
COc1cnc2c(c1)C(=O)c1c-2n(CCCNC2=NCCS2)c(=O)c2cc([N+](=O)[O-])ccc12,GI50,SNB-75 CNS,0.0329 µM
same,TGI,SNB-75 CNS,1.81 µM
same,GI50,EKVX NSCLC,1.01 µM
same,TGI,EKVX NSCLC,2.82 µM
same,GI50,SF-539 CNS,0.0359 µM
same,TGI,SF-539 CNS,1.05 µM
same,GI50,BT-549 breast,0.0544 µM
same,TGI,BT-549 breast,1.92 µM
same,GI50,HCC-2998 colon,1.03 µM
same,TGI,HCC-2998 colon,2.45 µM
same,GI50,786-0 renal,0.0235 µM
same,TGI,786-0 renal,0.0925 µM
same,GI50,SK-MEL-5 melanoma,0.0284 µM
same,TGI,SK-MEL-5 melanoma,0.157 µM
same,GI50,UACC-257 melanoma,0.575 µM
same,TGI,UACC-257 melanoma,3.28 µM
same,GI50,CAKI-1 renal,< 0.01 µM
same,TGI,CAKI-1 renal,1.47 µM
same,GI50,HS 578T breast,1.82 µM
same,TGI,HS 578T breast,4.54 µM
same,GI50,SF-268 CNS,< 0.01 µM
same,TGI,SF-268 CNS,1.88 µM
same,GI50,OVCAR-4 ovarian,0.482 µM
same,TGI,OVCAR-4 ovarian,2.58 µM
same,GI50,SF-295 CNS,0.0132 µM
same,TGI,SF-295 CNS,0.265 µM
same,GI50,NCI-H460 lung,< 0.01 µM
same,TGI,NCI-H460 lung,1.24 µM
same,GI50,KM12 colon,1.11 µM
same,TGI,KM12 colon,3.13 µM
same,GI50,DU-145 prostate,< 0.01 µM
same,TGI,DU-145 prostate,1.38 µM
same,GI50,OVCAR-3 ovarian,0.137 µM
same,TGI,OVCAR-3 ovarian,1.81 µM
same,GI50,MDA-MB-435,0.478 µM
same,TGI,MDA-MB-435,2.29 µM
same,GI50,UO-31 renal,< 0.01 µM
same,TGI,UO-31 renal,1.19 µM
same,GI50,HCT-15 colon,1.17 µM
same,TGI,HCT-15 colon,2.66 µM
same,GI50,M14 melanoma,< 0.01 µM
same,TGI,M14 melanoma,1.16 µM
same,GI50,SW-620 colon,0.0139 µM
same,TGI,SW-620 colon,1.84 µM
same,GI50,OVCAR-5 ovarian,1.04 µM
same,TGI,OVCAR-5 ovarian,3.59 µM
same,GI50,ACHN renal,< 0.01 µM
same,TGI,ACHN renal,1.15 µM
